Target: T1, human Edg-1 receptor (Homo sapiens, UniProt P21453)
T1 construct: FLAG (N); expressed in transfected cells; membrane preparation
Test: GTP-γ-S assay using human Edg-1 receptors (scintillation proximity assay, CHO Flp-In membrane preparation)
Assay type: biochemical
Conditions: test compound at 10 μM; high control 10 μM S1P = 100% activation; membranes of CHO Flp-In cells overexpressing human Edg-1; read-out: % activation (Edg-1 receptor activation in percent of the activation by 10 μM S1P)
Source text: A) GTP-γ-S Assay Using Human Edg-1 Receptors
In order to determine the Edg-1 receptor activation by the compounds of the invention, a GTP-γ-S (GTP-γ-S=guanosine 5′-[thio]triphosphate) assay for G-protein coupled receptor binding based on the scintillation proximity assay principle was used, employing a cell membrane preparation from a CHO Flp-In cell line which constitutively overexpresses the human Edg-1 receptor.
A membrane preparation was obtained by standard methods from the aforedescribed CHO Flp-In cell line constitutively overexpressing the human Edg-1 receptor. Briefly, the cryopreserved cells were taken in culture and grown until confluency in T175 cell culture flasks (Becton Dickinson, cat. no. 35 5001). Cell culture was stopped by washing with calcium-free phosphate-buffered saline (PBS; Gibco, cat. no. 14190), and cells were harvested with a rubber-policeman in 4° C. cold and calcium-free PBS supplemented with a protease inhibitor cocktail (complete protease inhibitor; Roche, cat. no. 1697498; 1 tablet per 50 ml) and subsequently centrifuged at 4° C. for 15 min at 1100×g (Heraeus Minifuge T). For cell lysis, the pellet was resuspended in a 4° C. cold hypotonic buffer consisting of 5 mM HEPES (Sigma-Aldrich, cat. no. H-0981), 1 mM EDTA (disodium salt; Merck, cat. no. 8418) supplemented with protease inhibitor cocktail (as above) in which cells were stored for another 15 min on ice. After lysis, cells were centrifuged at 4° C. for 10 min at 400×g (Heraeus Minifuge T). The pellet was disrupted in a Dounce homogenizer, diluted with the supernatant of the previous centrifugation and subsequently centrifuged at 4° C. for 10 min at 500×g (Heraeus Minifuge T) in order to separate nuclei and still intact cells from the membranes mainly present in the supernatant. The supernatant was then diluted in hypotonic buffer and centrifuged (Beckmann, Avanti J251) at approximately 18600×g for 2 h at 4° C. After centrifugation, the membrane pellet was resuspended in a storing buffer consisting of 20 mM HEPES; 150 mM NaCl (Merck, cat. no. 6400), 1 mM EDTA (as above) supplemented with protease inhibitor cocktail (as above). The membrane preparation was aliquoted and stored at −80° C. Protein concentration of the membrane preparation was determined in a sample by means of a commercial protein assay (Bio-Rad, DC Protein Assay, cat. nos. 500-0113, 500-0114, 500-0115).
The Edg-1 membrane preparation obtained in (b) was employed in a commercially available scintillation proximity assay (SPA) kit for G-protein coupled receptor binding from Amersham Biosciences/GE Healthcare (code RPNQ0210), in which ligand-induced binding of ^35S-radiolabeled GTP-γ-S to the receptor-containing membrane, which is bound to scintillation beads, stimulates the emission of light and allows the quantification of the in vitro activity of the Edg-1 agonistic compound. The assay was performed on a 96-well plate substantially according to the manufacturer's instructions. Before starting the experiments, scintillation beads were suspended in a reconstitution buffer consisting of Tris-HCl (pH 7.4) supplemented with 0.1% (w/v) sodium azide and subsequently diluted on ice with assay buffer (consisting of 20 mM HEPES, 100 mM NaCl, 1 mM EDTA (as above), 1 mM dithiothreitol (DTT), adjusted to pH 7.4) to a final bead concentration of 30 mg/ml.
Wells were charged with 10 μl of the specified assay buffer, 10 μl of a 100 μM guanosine diphosphate (GDP) solution, and 10 μl of a solution of the test compound in assay buffer/dimethyl sulfoxide resulting in a final concentration of the test compound of 10 μM. For the high controls, 10 μl of a solution of sphingosine-1-phosphate (S1P; Sigma, cat. no. S-9666), resulting in a final S1P concentration of 10 μM, and for the low controls 10 μl of assay buffer, was added into the respective wells instead of the solution of the test compound. All wells contained equivalent amounts of dimethyl sulfoxide. […]

T1 sequence (P21453 whole entry): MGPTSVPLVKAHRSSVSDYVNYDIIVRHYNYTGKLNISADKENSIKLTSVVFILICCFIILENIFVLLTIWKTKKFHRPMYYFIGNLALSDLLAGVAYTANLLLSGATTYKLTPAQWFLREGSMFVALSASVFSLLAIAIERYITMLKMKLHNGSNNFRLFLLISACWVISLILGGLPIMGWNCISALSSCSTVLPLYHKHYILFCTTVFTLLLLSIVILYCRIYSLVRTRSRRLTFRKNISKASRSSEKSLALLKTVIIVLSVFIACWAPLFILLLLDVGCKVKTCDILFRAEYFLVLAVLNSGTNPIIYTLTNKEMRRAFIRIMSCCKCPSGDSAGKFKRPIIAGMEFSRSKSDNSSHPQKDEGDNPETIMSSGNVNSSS

| Compound | activation at 10 µM [%] |
| --- | --- |
| Cc1cc(-c2nc3c(CC(C)C)nc(OCCC(F)(F)F)nc3o2)cc(C)c1OCC(=O)O [Example 4, {4-[7-Isobutyl-5-(3,3,3-trifluoropropoxy)oxazolo[5,4-d]pyrimidin-2-yl]-2,6-dimethylphenoxy}acetic acid] | 106 |
| Cc1cc(-c2nc3c(CC(C)C)nc(Oc4ccccc4F)nc3o2)cc(C)c1OCC(=O)O [Example 3, {4-[5-(2-Fluorophenoxy)-7-isobutyloxazolo[5,4-d]pyrimidin-2-yl]-2,6-dimethylphenoxy}acetic acid] | 92 |
| Cc1cc(-c2nc3c(CC(C)C)nc(Oc4cccc(Cl)c4)nc3o2)cc(C)c1OCC(=O)O [Example 5, {4-[5-(3-Chlorophenoxy)-7-isobutyloxazolo[5,4-d]pyrimidin-2-yl]-2,6-dimethylphenoxy}acetic acid] | 86 |
| CCCc1nc(OCCC(F)(F)F)nc2oc(-c3cc(C)c(OCC(=O)O)c(C)c3)nc12 [Example 2, {2,6-Dimethyl-4-[7-propyl-5-(3,3,3-trifluoropropoxy)oxazolo[5,4-d]pyrimidin-2-yl]phenoxy}acetic acid] | 97 |
| CCCc1nc(Oc2cc(F)ccc2F)nc2oc(-c3cc(C)c(OCC(=O)O)c(C)c3)nc12 [Example 1, {4-[5-(2,5-Difluorophenoxy)-7-propyloxazolo[5,4-d]pyrimidin-2-yl]-2,6-dimethylphenoxy}acetic acid] | 94 |

The remaining lines, values ahead:

| activation at 10 µM [%] | Compound |
| --- | --- |
| 90 | Cc1cc(-c2nc3c(C(C)C)nc(Cc4ccc(Cl)cc4)nc3o2)cc(C)c1OCC(=O)O [Example 9, {4-[5-(4-Chlorobenzyl)-7-isopropyloxazolo[5,4-d]pyrimidin-2-yl]-2,6-dimethylphenoxy}acetic acid] |
| 38 | Cc1cc(-c2nc3c(CC(C)C)nc(Cc4ccc(Cl)cc4)nc3o2)cc(C)c1OCC(=O)O [Example 7, {4-[5-(4-Chlorobenzyl)-7-isobutyloxazolo[5,4-d]pyrimidin-2-yl]-2,6-dimethylphenoxy}acetic acid] |
| 98 | Cc1cc(-c2nc3c(CC(C)C)nc(Cc4ccccc4)nc3o2)cc(C)c1OCC(=O)O [Example 8, [4-(5-Benzyl-7-isobutyloxazolo[5,4-d]pyrimidin-2-yl)-2,6-dimethylphenoxy]acetic acid] |
| 118 | CCCc1nc(Oc2cccc(Cl)c2)nc2oc(-c3cc(C)c(OCC(=O)O)c(C)c3)nc12 [Example 6, {4-[5-(3-Chlorophenoxy)-7-propyloxazolo[5,4-d]pyrimidin-2-yl]-2,6-dimethylphenoxy}acetic acid] |

From patent publication US9321787B2, “Carboxylic acid derivatives having an oxazolo[5,4-d]pyrimidine ring” (SANOFI, priority 2011, dated 2016)
